Experimental data reported in article PMC11818225, “Multifaceted Sulfonamide-Derived Thiosemicarbazones: Combining Metal Chelation and Carbonic Anhydrases Inhibition in Anticancer Therapy” (International Journal of Molecular Sciences, 2025).

Legend:
[1] = tested on: HeLa (cervix); assay: Antiproliferative SBR assay (NCI protocol), HeLa; format: cell-based, human; settings: 48 h exposure, n = 3, mean ± SD
Text: (§1) The latter two represent multidrug-resistant cell lines.

[2] = tested on: HBL-100 (breast); assay: Antiproliferative SBR assay (NCI protocol), HBL-100; format: cell-based, human; settings: 48 h exposure, n = 3, mean ± SD
Text: as §1

[3] = tested on: T-47D (breast); assay: Antiproliferative SBR assay (NCI protocol), T-47D; format: cell-based, human; settings: 48 h exposure, n = 3, mean ± SD, multidrug-resistant line
Text: as §1

[4] = tested on: WiDr (colon); assay: Antiproliferative SBR assay (NCI protocol), WiDr; format: cell-based, human; settings: 48 h exposure, n = 3, mean ± SD, multidrug-resistant line
Text: as §1

[5] = tested on: A549 (non-small cell lung); assay: Antiproliferative SBR assay (NCI protocol), A549; format: cell-based, human; settings: 48 h exposure, n = 3, mean ± SD
Text: as §1

[6] = tested on: SW1573 (non-small cell lung)
Method: The potential antiproliferative activity of sulfonamides synthesized in this study was evaluated in vitro using the SBR assay, following the US NCI protocol. A panel of six tumor cell lines was employed: A549 (non-small cell lung), HBL-100 (breast), HeLa (cervix), SW1573 (non-small cell lung), T-47D (breast), and WiDr (colon). The latter two represent multidrug-resistant cell lines.
Cells were maintained in culture in 60 mm cell culture dishes in growth medium (10 mL) and passaged twice weekly.
The antiproliferative activity of compounds was tested using our implementation of the protocol of the National Cancer Institute (NCI) of the USA. The following seeding densities (cells per well) were used: 2500 (A549, HBL-100, HeLa, and SW1573) and 5000 (T-47D and WiDr). Stock solutions of inhibitors (40 mM) were prepared in pure DMSO (400 times the maximum test concentration).

[7] = biological target: human CA II (Homo sapiens, UniProt P00918); assay: Stopped-flow CO2 hydrase assay, CA II
[8] = biological target: human CA IX (Homo sapiens, UniProt Q16790); assay: Stopped-flow CO2 hydrase assay, CA IX; settings: for Selectivity Ratio I/IX: Ki CA I / Ki CA IX; for Selectivity Ratio II/IX: Ki CA II / Ki CA IX
[9] = biological target: human CA XII (Homo sapiens, UniProt O43570); assay: Stopped-flow CO2 hydrase assay, CA XII; settings: for Selectivity Ratio I/XII: Ki CA I / Ki CA XII; for Selectivity Ratio II/XII: Ki CA II / Ki CA XII
human CA XII, sequence (O43570 25-354): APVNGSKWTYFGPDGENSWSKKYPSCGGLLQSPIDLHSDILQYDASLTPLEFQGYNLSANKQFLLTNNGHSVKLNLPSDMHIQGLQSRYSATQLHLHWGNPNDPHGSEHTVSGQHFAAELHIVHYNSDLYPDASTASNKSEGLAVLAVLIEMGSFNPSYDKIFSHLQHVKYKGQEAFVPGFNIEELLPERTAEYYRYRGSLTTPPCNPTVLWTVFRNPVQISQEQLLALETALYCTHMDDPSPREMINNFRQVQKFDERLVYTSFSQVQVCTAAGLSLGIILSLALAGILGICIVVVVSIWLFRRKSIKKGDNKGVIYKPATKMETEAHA

[10] = biological target: human CA I (Homo sapiens, UniProt P00915); assay: Stopped-flow CO2 hydrase assay, CA I
human CA I, sequence (P00915 whole entry): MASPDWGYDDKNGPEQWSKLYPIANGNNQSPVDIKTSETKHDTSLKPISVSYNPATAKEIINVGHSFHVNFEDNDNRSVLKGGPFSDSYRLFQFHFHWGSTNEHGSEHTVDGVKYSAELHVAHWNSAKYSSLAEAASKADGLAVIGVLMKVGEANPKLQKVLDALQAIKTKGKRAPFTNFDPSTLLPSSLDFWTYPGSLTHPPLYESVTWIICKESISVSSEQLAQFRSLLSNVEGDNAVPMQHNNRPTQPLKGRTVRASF

| Compound | GI50 ([1]; Homo sapiens, HeLa) [µM] | GI50 ([2]; Homo sapiens, HBL-100) [µM] | GI50 ([3]; Homo sapiens, T47D) [µM] | GI50 ([4]; Homo sapiens, WiDr) [µM] | GI50 ([5]; Homo sapiens, A549) [µM] | GI50 [6] [µM] | Ki [7] [µM] | Ki [8] [µM] | Selectivity Ratio I/IX [8] | Selectivity Ratio II/IX [8] | Ki [9] [µM] | Selectivity Ratio I/XII [9] | Selectivity Ratio II/XII [9] | Ki [10] [µM] | GI50 [1] [µM] | GI50 [2] [µM] | GI50 [3] [µM] | GI50 [4] [µM] | GI50 [5] [µM] |
| --- | --- | --- | --- | --- | --- | --- | --- | --- | --- | --- | --- | --- | --- | --- | --- | --- | --- | --- | --- |
| O=c1[nH]cc(F)c(=O)[nH]1 [5-Fluorouracil, reference compound] | 16 ± 5 | 4.4 ± 0.7 | 43 ± 16 | 49 ± 7 | 2.2 ± 0.3 | 3.3 ± 1.2 |  |  |  |  |  |  |  |  |  |  |  |  |  |
| NNC(=S)Nc1ccc(S(N)(=O)=O)cc1 [Compound 3a, 4-N-(4′-Sulfonamidophenyl)-3-thiosemicarbazide] | > 100 | > 100 | > 100 | > 100 | > 100 | > 100 |  |  |  |  |  |  |  |  |  |  |  |  |  |
| NS(=O)(=O)c1ccc(CCNC(=S)N/N=C/c2ccccc2)cc1 [Compound 4l, 1-Phenylmethylene-4-[2′-(4″-sulfonamido)phenyl]ethyl-3-thiosemicarbazone] | > 100 | > 100 | > 100 | 90 ± 14 | 90 ± 14 | 99 ± 1 | 0.0702 | 0.0308 | 18.4 | 2.3 | 0.00912 | 62.3 | 7.7 | 0.568 |  |  |  |  |  |
| COc1ccc(/C=N/NC(=S)Nc2ccc(S(N)(=O)=O)cc2)cc1 [Compound 4b, 1-(4′-Methoxyphenylmethylene)-4-(4″-sulfonamidophenyl)-3-thiosemicarbazone] | 64 ± 23 | > 100 | > 100 | > 100 | > 100 | > 100 |  |  |  |  |  |  |  |  |  |  |  |  |  |
| NNC(=S)Nc1cccc(S(N)(=O)=O)c1 [Compound 3b, 4-N-(3′-Sulfonamidophenyl)-3-thiosemicarbazide] | > 100 | > 100 | > 100 | > 100 | > 100 | > 100 | 0.439 | 0.185 | 7.9 | 2.4 | 0.116 | 12.6 | 3.8 | 1.46 |  |  |  |  |  |
| NS(=O)(=O)c1ccc(CCNC(=S)N/N=C/c2ccc(Br)cc2)cc1 [Compound 4p, 1-(4′-Bromophenylmethylene)-4-[2″-(4‴-sulfonamido)phenyl]ethyl-3-thiosemicarbazone] | 31 ± 9 | 42 ± 8 | 37 ± 8 | 58 ± 9 | 21 ± 4 | 53 ± 17 | 0.813 | 0.499 | 12.2 | 1.6 | 0.123 | 49.5 | 6.6 | 6.09 |  |  |  |  |  |
| NS(=O)(=O)c1cccc(NC(=S)N/N=C/c2ccc(F)cc2)c1 [Compound 4i, 1-(4′-Fluorophenylmethylene)-4-(3″-sulfonamidophenyl)-3-thiosemicarbazone] | > 100 | > 100 | > 100 | 79 ± 29 | 83 ± 16 | > 100 |  |  |  |  |  |  |  |  |  |  |  |  |  |
| NS(=O)(=O)c1ccc(NC(=S)N/N=C/c2ccc(Cl)cc2)cc1 [Compound 4d, 1-(4′-Chlorophenylmethylene)-4-(4″-sulfonamidophenyl)-3-thiosemicarbazone] | > 100 | > 100 | > 100 | > 100 | > 100 | > 100 |  |  |  |  |  |  |  |  |  |  |  |  |  |
| NS(=O)(=O)c1ccc(CCNC(=S)N/N=C/c2ccc(Cl)cc2)cc1 [Compound 4o, 1-(4′-Chlorophenylmethylene)-4-[2″-(4‴-sulfonamido)pheny]ethyl-3-thiosemicarbazone] | 45 ± 16 | 76 ± 32 | > 100 | > 100 | 62 ± 6 | 73 ± 38 | 0.773 | 0.408 | 15.2 | 1.9 | 0.143 | 43.4 |  | 6.22 |  |  |  |  |  |
| NS(=O)(=O)c1cccc(NC(=S)N/N=C/c2ccccc2)c1 [Compound 4g, 1-Phenylmethylene-4-(3″-sulfonamidophenyl)-3-thiosemicarbazone] | 61 ± 6 | > 100 | 83 ± 10 | 62 ± 10 | 51 ± 10 | 70 ± 1 |  |  |  |  |  |  |  |  |  |  |  |  |  |
| NS(=O)(=O)c1ccc(NC(=S)N/N=C/c2ccc(Br)cc2)cc1 [Compound 4e, 1-(4′-Bromophenylmethylene)-4-(4″-sulfonamidophenyl)-3-thiosemicarbazone] | 18 ± 1 | 24 ± 2 | 36 ± 1 | 62 ± 12 | 23 ± 6 | 22 ± 1 |  |  |  |  |  |  |  |  |  |  |  |  |  |
| NS(=O)(=O)c1ccc(CCNC(=S)N/N=C/c2ccccn2)cc1 [Compound 5c, 1-(Pyridin-2′-ylmethylene)-4-[2″-(4‴-sulfonamidophenyl)]ethyl-3-thiosemicarbazone] | > 100 | > 100 | > 100 | > 100 | 37 ± 11 | > 100 | 0.0839 | 0.0285 | 9.5 | 2.9 | 0.0093 | 29.0 | 9.0 | 0.27 |  |  |  |  |  |
| NS(=O)(=O)c1cccc(NC(=S)N/N=C/c2ccc(Cl)cc2)c1 [Compound 4j, 1-(4′-Chlorophenylmethylene)-4-(3″-sulfonamidophenyl)-3-thiosemicarbazone] | 38 ± 3 | 42 ± 15 | 59 ± 16 | 24 ± 8 | 22 ± 4 | 36 ± 4 |  |  |  |  |  |  |  |  |  |  |  |  |  |
| NS(=O)(=O)c1ccc(NC(=S)N/N=C/c2ccc(F)cc2)cc1 [Compound 4c, 1-(4′-Fluorophenylmethylene)-4-(4″-sulfonamidophenyl)-3-thiosemicarbazone] | 7.9 ± 1.1 | 28 ± 1 | 17 ± 1 | 24 ± 4 | 25 ± 5 | 6 ± 0.4 |  |  |  |  |  |  |  |  |  |  |  |  |  |
| NS(=O)(=O)c1ccc(NC(=S)N/N=C/c2ccc([N+](=O)[O-])cc2)cc1 [Compound 4f, 1-(4′-Nitrophenylmethylene)-4-(4″-sulfonamidophenyl)-3-thiosemicarbazone] | > 100 | > 100 | > 100 | > 100 | > 100 | > 100 |  |  |  |  |  |  |  |  |  |  |  |  |  |
| NS(=O)(=O)c1cccc(NC(=S)N/N=C/c2ccc(Br)cc2)c1 [Compound 4k, 1-(4′-Bromophenylmethylene)-4-(3″-sulfonamidophenyl)-3-thiosemicarbazone] | 45 ± 5 | 40 ± 1 | > 100 | > 100 | 19 ± 6 | 46 ± 1 |  |  |  |  |  |  |  |  |  |  |  |  |  |
| [NH2][Pt]([NH2])([Cl])[Cl] [CDDP, cisplatin, reference compound] |  |  |  |  |  | 2.7 ± 0.4 |  |  |  |  |  |  |  |  | 1.8 ± 0.5 | 1.9 ± 0.2 | 17 ± 3 | 26 ± 4 | 4.9 ± 0.2 |
| COc1ccc(/C=N/NC(=S)Nc2cccc(S(N)(=O)=O)c2)cc1 [Compound 4h, 1-(4′-Methoxyphenylmethylene)-4-(3″-sulfonamidophenyl)-3-thiosemicarbazone] | > 100 | > 100 | > 100 | > 100 | > 100 | > 100 |  |  |  |  |  |  |  |  |  |  |  |  |  |
